# Data reported in paper PMC9410537, “Discovery of Ircinianin Lactones B and C—Two New Cyclic Sesterterpenes from the Marine Sponge Ircinia wistarii” (Marine Drugs, 2022).
# Like-named read-outs stand apart in the source and are kept apart here.
# Tests used:
# [1] = test system: L-6 cells (rat skeletal myoblasts); experiment: In vitro cytotoxicity assay with L-6 cells (resazurin); format: cell-based; conditions: L6, 70 h, read-out: IC50 L6
# Method: In vitro cytotoxicity assay with L-6 cells. Assays were performed in 96-well microtiter plates, each well containing 100 μL of RPMI 1640 medium supplemented with 1% L-glutamine (200 mM) and 10% fetal bovine serum, and 4000 L-6 cells (a primary cell line derived from rat skeletal myoblasts). Serial drug dilutions ranged from 100 to 0.002 μg/mL. After 70 h of incubation, the plates were inspected under an inverted microscope to assure growth of the controls and sterile conditions. 10 μL of resazurin was then added to each well and the plates were incubated for another 2 h. […] Podophyllotoxin (Sigma P4405) was used as control (IC50 0.011 ± 0.005 μM).
# [2] = test system: T. cruzi Tulahuen strain C2C4; experiment: Activity against T. cruzi in L-6 cells (beta-galactosidase/CPRG); format: cell-based, Trypanosoma cruzi; conditions: Tulahuen C2C4 in L-6 cells, Table 2 values are means of two independent assays
# Method: Activity against T. cruzi. Rat skeletal myoblasts (L-6 cells) were seeded in 96-well microtiter plates at 2000 cells/well in 100 μL RPMI 1640 medium with 10% FBS and 2 mM L-glutamine. After 24 h, the media in each well was removed and replaced with 100 μL of fresh media containing 5000 trypomastigote forms of T. cruzi Tulahuen strain C2C4 containing the β-galactosidase (lacZ) gene. After 48 h, the media was removed from the wells again, and this time, replaced by 100 μL fresh medium with or without 1 from 100 to 0.002 μg/mL. After 96 h of incubation, the plates were inspected under an inverted microscope to assess growth and sterility of the controls. Then, the substrate CPRG/Nonidet (50 μL) was added to all wells. A color reaction developed within 2–6 h and could be read photometrically at 540 nm.
# [3] = test system: P. falciparum NF54 strain; experiment: In vitro activity against erythrocytic stages of P. falciparum (3H-hypoxanthine incorporation assay); format: cell-based; conditions: Plasmodium falciparum, Table 2 values are means of two independent assays
# Method: Activity against P. falciparum. In vitro activity against erythrocytic stages of P. falciparum was determined using a ^3H-hypoxanthine incorporation assay against the drug-sensitive NF54 strain [76]. Compounds were dissolved in DMSO at 10 mg/mL and further diluted in medium before being added to parasite cultures incubated in RPMI 1640 medium without hypoxanthine, supplemented with HEPES (5.94 g/L), NaHCO3 (2.1 g/L), neomycin (100 U/mL), Albumax^R (5 g/L) and washed human red cells A^+ at 2.5% haematocrit (0.3% parasitaemia). Serial drug dilutions ranged from 100 to 0.002 μg/mL. The 96-well plates were incubated in a humidified atmosphere at 37 °C; 4% CO2, 3% O2, 93% N2. After 48 h 50 μL of ^3H-hypoxanthine (=0.5 μCi) was added to each well of the plate. The plates were incubated for a further 24 h under the same conditions. The plates were then harvested with a Betaplate™ cell harvester (Wallac, Zurich, Switzerland) and the red blood cells were transferred onto a glass fiber filter then washed with distilled water. The dried filters were inserted into a plastic foil with 10 mL of scintillation fluid and counted in a Betaplate™ liquid scintillation counter (Wallac, Zurich, Switzerland). IC50 values were calculated from sigmoidal inhibition curves by linear regression using Microsoft Excel. Chloroquine diphosphate (Sigma C6628) was used as control (IC50 0.006 ± 0.002 μM).
# [4] = Observed stability of the isolated compounds; format: physicochemical
# From the text: The shift values of the terminal heterocycle were in very good agreement with literature data from similar natural products, bearing a γ-hydroxy-γ-butenolide moiety. Analogous to compound 7, the Δ^8,10 double bond of 8 was defined as E (C-9: δC 16.2 and NOESY cross correlations depicted in Figure 4). Likewise, based on the same observed diagnostic NOE crosspeaks for the indene system (Figure S43B) and for biogenetic reasons, we propose that 8 is 11R*, 15R*, 18S*, 20R*, 21S* configured. […] Therefore, we integrated computational methods and aimed for quantum-mechanical predictions of ^1H and ^13C NMR chemical shifts of a 1S- and a 1R-configured version of 8.
# All tests were performed with 1 as a pre-screening for the scaffold’s activity within their respective assays. Based on the results from the pre-screening, the biological evaluation of the structural congeners was planned. Unfortunately, an instability phenomenon affected the purity of the isolated compounds. Due to the limited amounts of the isolated compounds, repurification would not have yielded the required sample quantity for the assays. This reality precluded biological evaluation of the structural congeners 3–8.
# [5] = test system: Trypanosoma brucei rhodesiense STIB900; experiment: Activity against Trypanosoma brucei rhodesiense STIB900 (resazurin); conditions: Table 2 values are means of two independent assays
# Method: Activity against Trypanosoma brucei rhodesiense STIB900. […] Minimum Essential Medium (50 µL) supplemented with 25 mM HEPES, 1 g/L additional glucose, 1% MEM non-essential amino acids (100×), 0.2 mM 2-mercaptoethanol, 1 mM Na-pyruvate and 15% heat inactivated horse serum was added to each well of a 96-well microtiter plate. Serial drug dilutions ranging from 100 to 0.002 μg/mL were prepared. Then, 4 × 10^3 bloodstream forms of T. b. rhodesiense STIB 900 in 50 µL were added to each well and the plate was incubated at 37 °C under a 5% CO2 atmosphere for 70 h. 10 µL of a resazurin solution (resazurin, 12.5 mg in 100 mL double-distilled water) was then added to each well and incubation continued for a further 2–4 h [70]. The plates were read with a Spectramax Gemini XS microplate fluorometer (Molecular Devices Cooperation, Sunnyvale, CA, USA) using an excitation wavelength of 536 nm and an emission wavelength of 588 nm. Data were analyzed using Softmax Pro (Molecular Devices Cooperation, Sunnyvale, CA, USA), which calculated IC50 values by linear regression [71] and 4-parameter logistic regression from the sigmoidal dose inhibition curves.
# [6] = test system: L. donovani strain MHOM/ET/67/L82 axenic amastigotes; experiment: Activity against L. donovani axenic amastigotes (resazurin); format: cell-based, Leishmania donovani; conditions: in vitro, Table 2 values are means of two independent assays
# Method: Activity against L. donovani axenic amastigotes. Amastigotes of L. donovani strain MHOM/ET/67/L82 were grown in axenic culture at 37 °C in SM medium at pH 5.4 supplemented with 10% heat-inactivated fetal bovine serum under an atmosphere of 5% CO2 in air. 100 µL of culture medium with 10^5 amastigotes from axenic culture with or without a serial drug dilution were seeded in 96-well microtiter plates. Serial drug dilutions ranged from 100 to 0.002 μg/mL. After 70 h of incubation, the plates were inspected under an inverted microscope to assure growth of the controls and sterile conditions.
molecule,measurement,setting,value
"COc1cc([C@@H]2c3cc4c(cc3[C@H](O)[C@H]3COC(=O)[C@H]23)OCO4)cc(OC)c1OC [Podophyllotoxin, reference compound]",IC50,[1],11 ± 5 nM
"O=C(Cn1ccnc1[N+](=O)[O-])NCc1ccccc1 [benznidazole, Benznidazole, reference compound]",IC50,"[2]; Trypanosoma cruzi, TULAHUEN, L6, in vitro",2310 ± 1150 nM
same,IC50,[2]; in vitro,3360 nM
"CCN(CC)CCCC(C)Nc1ccnc2cc(Cl)ccc12 (stereo not drawn) [chloroquine, Chloroquine diphosphate, reference compound]",IC50,[3],6 nM
"CC(=CC1C=C(C)C2CCC(C)C2C12OC(=O)C(C)=C2O)CCCC1=CC(=O)OC1O (stereo not drawn) [compound 8, Ircinianin lactone C]",Stability of isolated compound,[4]; rapid decomposition after the NMR measurements,unstable
"Nc1nc(N)nc(Nc2ccc([As]3SCC(CO)S3)cc2)n1 (stereo not drawn) [melarsoprol, Melarsoprol, reference compound]",IC50,"[5]; Trypanosoma brucei, RHODESIENSE|STIB900, read-out: IC50 T. brucei rhodesiense, in vitro, STIB900 bloodstream forms",13 ± 6 nM
same,IC50,"[5]; read-out: IC50 T. brucei rhodesiense, in vitro, STIB900 bloodstream forms",20 nM
"CCCCCCCCCCCCCCCCOP(=O)([O-])OCC[N+](C)(C)C [miltefosine, Miltefosine]",IC50,[6]; Leishmania donovani,650 ± 270 nM
same,IC50,[6],486 nM
Ircinianin lactone A [compound 6],Stability of isolated compound,[4],unstable
Ircinianin lactone B [compound 7],Stability of isolated compound,[4],unstable
Oxoircinianin [compound 3],Stability of isolated compound,[4],unstable
